Experiments:
FAAH [1] = target: T1, FAAH (Mus musculus, UniProt O08914); experiment: In vivo FAAH inhibition after oral dosing, remaining activity in brain homogenate (BRh, central nervous tissue); design: species or system NMRI mice; settings: brain homogenate; for In Vivo BRh 3 mg·kg 8 h (remaining FAAH activity, % of control): 8 h after dosing, low value = strong inhibitor
T1 construct: A fragment of liver, left lung lobe and brain without cerebellum were removed; from tissue; host or cells: male NMRI mice; brain (without cerebellum) and liver homogenates
T1 sequence (O08914 1-579): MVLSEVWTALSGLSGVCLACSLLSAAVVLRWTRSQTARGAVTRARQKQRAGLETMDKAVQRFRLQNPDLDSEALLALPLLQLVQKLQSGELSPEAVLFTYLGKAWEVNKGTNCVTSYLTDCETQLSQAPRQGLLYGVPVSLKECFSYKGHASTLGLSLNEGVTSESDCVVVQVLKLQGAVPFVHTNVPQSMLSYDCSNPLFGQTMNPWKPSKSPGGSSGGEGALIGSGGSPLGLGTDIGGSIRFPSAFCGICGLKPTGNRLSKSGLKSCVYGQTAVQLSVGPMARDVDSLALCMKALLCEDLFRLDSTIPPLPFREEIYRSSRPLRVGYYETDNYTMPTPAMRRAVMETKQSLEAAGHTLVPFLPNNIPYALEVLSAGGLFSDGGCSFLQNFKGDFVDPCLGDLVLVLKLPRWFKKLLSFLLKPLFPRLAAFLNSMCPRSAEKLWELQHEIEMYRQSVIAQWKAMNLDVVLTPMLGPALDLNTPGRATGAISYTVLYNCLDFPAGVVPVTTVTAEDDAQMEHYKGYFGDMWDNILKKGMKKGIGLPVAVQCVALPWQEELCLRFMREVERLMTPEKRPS
Summary of the method: (§1)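 Remaining FAAH activity is given as % of vehicle-treated controls after blank subtraction, measured by radiolabelled AEA hydrolysis (2 μM AEA, 5 nM 3H-AEA, 37 °C) in brain (10 min) or liver (7 min) homogenates. These came from fasted male NMRI mice dosed orally at 30 or 3 mg/kg.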

FAAH [2] = target: T2, FAAH (Rattus norvegicus, UniProt P97612); experiment: In vitro FAAH activity in rat brain membranes, 3H-AEA substrate, % of control; assay type: biochemical, Wistar rats; settings: low value = strong inhibitor; for In Vitro FAAH activity, 100 nM: 100 nM test compound; for In Vitro FAAH activity, 10 uM: 10 uM test compound; for In Vitro 100 nM (FAAH activity, % of control): rat brain membranes, compound at 100 nM
T2 construct: Frozen brains (without cerebellum) from Wistar rats were used; from tissue; host or cells: Wistar rat brain (without cerebellum), washed membrane pellets
T2 sequence (P97612 1-579): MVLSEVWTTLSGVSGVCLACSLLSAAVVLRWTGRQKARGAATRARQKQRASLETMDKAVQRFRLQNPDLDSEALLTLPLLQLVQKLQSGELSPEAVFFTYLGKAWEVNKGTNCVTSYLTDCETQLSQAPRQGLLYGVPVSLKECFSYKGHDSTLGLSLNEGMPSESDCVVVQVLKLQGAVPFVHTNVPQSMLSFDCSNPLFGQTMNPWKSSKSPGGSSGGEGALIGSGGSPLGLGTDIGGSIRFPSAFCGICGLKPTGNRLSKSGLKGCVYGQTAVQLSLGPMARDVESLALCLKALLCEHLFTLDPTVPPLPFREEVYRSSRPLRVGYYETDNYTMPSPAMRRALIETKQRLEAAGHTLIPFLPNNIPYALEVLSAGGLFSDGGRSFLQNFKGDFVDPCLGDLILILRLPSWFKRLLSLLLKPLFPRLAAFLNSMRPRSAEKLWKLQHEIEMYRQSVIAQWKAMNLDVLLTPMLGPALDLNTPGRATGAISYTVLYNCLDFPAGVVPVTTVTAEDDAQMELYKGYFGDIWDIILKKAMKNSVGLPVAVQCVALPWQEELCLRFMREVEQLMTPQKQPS
Summary of the method: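 FAAH activity measured as 3H-ethanolamine released from 2 μM [3H]AEA over 10 min by rat brain membrane preparation, after 15 min 37 °C preincubation with test compound at 10 or 0.1 μM. Charcoal-separated supernatant scintillation-counted; values expressed as % of control minus no-protein blank.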

FAAH [3] = target: T1, FAAH; experiment: In vivo FAAH inhibition after oral dosing, remaining activity in liver homogenate (LVh, peripheral tissue); design: species or system NMRI mice; settings: liver homogenate; for In Vivo LVh 3 mg·kg 8 h (remaining FAAH activity, % of control): 8 h after dosing, low value = strong inhibitor
Summary of the method: as §1

| SMILES | In Vivo BRh 3 mg/kg 8 h, remaining FAAH activity (FAAH [1]) | In Vitro FAAH activity, 100 nM (FAAH [2]) | In Vivo LVh 3 mg/kg 8 h, remaining FAAH activity (FAAH [3]) | In Vivo BRh 30 mg/kg 1 h, remaining FAAH activity (FAAH [1]) | In Vitro FAAH activity, 10 uM (FAAH [2]) | In Vivo LVh 30 mg/kg 1 h, remaining FAAH activity (FAAH [3]) | In Vivo BRh 3 mg·kg 8 h (remaining FAAH activity, % of control) (FAAH [1]) | In Vitro 100 nM (FAAH activity, % of control) (FAAH [2]) | In Vivo LVh 3 mg·kg 8 h (remaining FAAH activity, % of control) (FAAH [3]) |
| --- | --- | --- | --- | --- | --- | --- | --- | --- | --- |
| CCC1CN(C(=O)n2cnc(-c3ccc(Cl)cc3)c2)C(C)(C)O1 (stereo not shown) [Compound 267, (4-(4-chlorophenyl)-1H-imidazol-1-yl)(5-ethyl-2,2-dimethyloxazolidin-3-yl)methanone] | 79.4 % of control | 84.1 % of control | 83.7 % of control |  |  |  |  |  |  |
| CN(C(=O)n1cnc(-c2ccccc2)c1)c1ccccc1 [Compound 4, N-methyl-N,4-diphenyl-1H-imidazole-1-carboxamide] |  | 83.6 % of control |  | 14.3 % of control | 0.1 % of control | 10.6 % of control |  |  |  |
| CC1(C)COCN1C(=O)n1nnc2ccccc21 [Compound 71, (1H-benzo[d][1,2,3]triazol-1-yl)(4,4-dimethyloxazolidin-3-yl)methanone] | 1.8 % of control | 2.3 % of control | 2.5 % of control | 0.3 % of control | 0.1 % of control | 2.2 % of control |  |  |  |
| CN(C(=O)n1cnc(-c2cccc(-c3cccc(C(N)=O)c3)c2)c1)C12CC3CC(CC(C3)C1)C2 [Compound 287, 4-(3′-carbamoylbiphenyl-3-yl)-N-methyl-N-tricyclo[3.3.1.13,7]dec-1-yl-1H-imidazole-1-carboxamide-propan-2-ol (1:1)] |  |  |  |  |  |  | 105.8 % of control | 127.3 % of control | 85.7 % of control |
| CN(C(=O)n1cnc(-c2cccc(-c3cccc(O)c3)c2)c1)C1CCCCC1 [Compound 247, N-cyclohexyl-4-(3′-hydroxybiphenyl-3-yl)-N-methyl-1H-imidazole-1-carboxamide] | 131.7 % of control | 0.5 % of control | 85.5 % of control |  |  |  |  |  |  |
| Cc1nc(-c2ccccc2)cn1C(=O)N(C)C1CCCCC1 [Compound 279, N-cyclohexyl-N,2-dimethyl-4-phenyl-1H-imidazole-1-carboxamide] |  |  |  |  |  |  | 91.6 % of control | 87.3 % of control | 94.1 % of control |
| CN(C(=O)n1cnc(-c2cccc(-c3cccc(C(N)=O)c3)c2)c1)C1CCCCC1 [Compound 238, 4-(3′-carbamoylbiphenyl-3-yl)-N-cyclohexyl-N-methyl-1H-imidazole-1-carboxamide] | 67.9 % of control | 1.2 % of control | 2.8 % of control |  |  |  |  |  |  |
| C[C@@H]1CCC[C@H](C)N1C(=O)n1cnc(-c2ccccc2)c1 [Compound 221, ((2R,6S)-2,6-dimethylpiperidin-1-yl)(4-phenyl-1H-imidazol-1-yl)methanone] | 104.5 % of control | 105.8 % of control | 44.9 % of control |  |  |  |  |  |  |
| CC1(C)COCN1C(=O)n1cnc(-c2ccc(Cl)cc2)c1 [Compound 186, (4-(4-chlorophenyl)-1H-imidazol-1-yl)(4,4-dimethyloxazolidin-3-yl)methanone] | 78.7 % of control | 96.5 % of control | 37.7 % of control |  |  |  |  |  |  |
| CN(C(=O)n1cnc(-c2ccc(OC(F)F)cc2)c1)C1CCCCC1 [Compound 276, N-cyclohexyl-4-(4-(difluoromethoxy)phenyl)-N-methyl-1H-imidazole-1-carboxamide] |  |  |  |  |  |  | 1.4 % of control | 71.5 % of control | 2 % of control |
| COc1ccc(OCCN(C)C(=O)n2nnc3ccccc32)cc1 [Compound 157, N-(2-(4-methoxyphenoxy)ethyl)-N-methyl-1H-benzo[d][1,2,3]triazole-1-carboxamide] | 5.2 % of control | 0 % of control | 3.5 % of control |  |  |  |  |  |  |
| CN(C(=O)n1cnc(-c2ccc(O)c(F)c2)c1)C1CCCCC1 [Compound 330, N-cyclohexyl-4-(3-fluoro-4-hydroxyphenyl)-N-methyl-1H-imidazole-1-carboxamide] |  |  |  |  |  |  | 22.8 % of control | 29.7 % of control | 11.1 % of control |
| CC1(C)COCN1C(=O)n1nnc2cc(Cl)ccc21 [Compound no. 359, (5-chloro-1-benzo[d][1,2,3]triazol-1-yl)(4,4-dimethyloxazolidin-3-yl)methanone] |  |  |  |  |  |  | 2.5 % of control | 1.4 % of control | 1.7 % of control |
| NC(=O)c1ccc(Oc2ccc(-c3ncn(C(=O)N4CCOCC4)n3)cc2)cc1 [Compound 147, 4-(4-(1-(morpholine-4-carbonyl)-1H-1,2,4-triazol-3-yl)phenoxy)benzamide] | 124.4 % of control | 55.1 % of control | 103 % of control |  |  |  |  |  |  |
| CN(C(=O)n1cnc(-c2ccc(F)c(O)c2)c1)C1CCCC1 [Compound 344, N-cyclopentyl-4-(4-fluoro-3-hydroxyphenyl)-N-methyl-1H-imidazole-1-carboxamide] |  |  |  |  |  |  | 121.1 % of control | 1.7 % of control | 2.1 % of control |
| CN(C(=O)n1cnc(-c2ccc(F)c(O)c2)c1)C1CCCCC1 [Compound 343, N-cyclohexyl-4-(4-fluoro-3-hydroxyphenyl)-N-methyl-1H-imidazole-1-carboxamide] |  |  |  |  |  |  | 95.5 % of control | 44.7 % of control | 19.7 % of control |
| O=C(NC12CC3CC(CC(C3)C1)C2)n1nnc2ccccc21 [Compound 126, N-adamantyl-1H-benzo[d][1,2,3]triazole-1-carboxamide] | 0.2 % of control | 0 % of control | 2.2 % of control |  |  |  |  |  |  |

From patent US9353082B2, “Pharmaceutical compounds” (BIAL—PORTELA & CA, S.A., priority 2008, dated 2016)
